Article PMC12490239, “Combining BET inhibition with SMAC mimetics restricts tumor growth and triggers immune surveillance in preclinical cancer models” (Cell Reports Medicine, 2025)

How the values were obtained:
Test in all cases: cells
Set-up in all cases: CellTiter-Glo 2.0 luminescence proliferation/viability assay, single agents, human tumour cell line panel
[1] = tested on: COLO-201; details: Homo sapiens, COLO 201, 96 h; single agent; read-out: IC50 SMACm
In short: (§1)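 Human tumour cell lines were seeded into assay plates and held at 37°C with 5% CO2 for twenty-four hours, then exposed in triplicate to rising concentrations of the SMAC mimetic, from 4.5 nM to 10 μM, with DMSO as control. After 96 h, viability was read as CellTiter-Glo2.0 luminescence to derive single-agent IC50 values.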

[2] = tested on: Calu-6; details: Homo sapiens, Calu-6, 96 h; single agent; read-out: IC50 SMACm
In short: as §1

[3] = tested on: GCIY; details: Homo sapiens, GCIY, 96 h; single agent; read-out: IC50 SMACm
In short: as §1

[4] = tested on: HARA; details: 96 h; single agent; read-out: IC50 SMACm
In short: as §1

[5] = tested on: HCA46; details: 96 h; single agent; read-out: IC50 SMACm
In short: as §1

[6] = tested on: HCC1195; details: 96 h; single agent; read-out: IC50 SMACm
In short: as §1

[7] = tested on: HCC2998; details: Homo sapiens, HCC 2998, 96 h; single agent; read-out: IC50 SMACm
In short: as §1

[8] = tested on: LS-513; details: Homo sapiens, LS-513, 96 h; single agent; read-out: IC50 SMACm
In short: as §1

[9] = tested on: LU-99; details: Homo sapiens, Lu-99, 96 h; single agent; read-out: IC50 SMACm
In short: as §1

[10] = tested on: NCI-H520; details: Homo sapiens, NCI-H520, 96 h; single agent; read-out: IC50 SMACm
In short: as §1

[11] = tested on: NCI-H596; details: Homo sapiens, NCI-H596, 96 h; single agent; read-out: IC50 SMACm
In short: as §1

[12] = tested on: RERF-LC-Ad2; details: RERF-LC-Ad2, 96 h; single agent; read-out: IC50 SMACm
In short: as §1

[13] = tested on: SNU1181; details: 96 h; single agent; read-out: IC50 SMACm
In short: as §1

[14] = tested on: SW480; details: Homo sapiens, SW480, 96 h; single agent; read-out: IC50 SMACm
In short: as §1

[15] = tested on: SW620; details: Homo sapiens, SW-620, 96 h; single agent; read-out: IC50 SMACm
In short: as §1

CN[C@@H](C)C(=O)Nc1ccc(-c2c(-c3cccnc3OC)nc3cc(C)ccn23)c(C#Cc2ccc3c(C)nccc3c2)n1 [SMACm, BI 891065]
IC50 [1]: 0.369 µM | IC50 [2]: 4.93 µM | IC50 [3]: 4.01 µM | IC50 [4]: 3.97 µM | IC50 [5]: 3.54 µM | IC50 [6]: 4.59 µM | IC50 [7]: 3.06 µM | IC50 [8]: 5.77 µM | IC50 [9]: 7.37 µM | IC50 [10]: 4.01 µM | IC50 [11]: 4.41 µM | IC50 [12]: 2.52 µM | IC50 [13]: 5.08 µM | IC50 [14]: 5.81 µM | IC50 [15]: 4.46 µM
